Data published in patent US12310975B2, “Modulators of BCL6 proteolysis and associated methods of use” (Arvinas Operations, Inc., priority 2019, dated 2025).

Biological target: BCL6 (Homo sapiens (Human), UniProt P41182)
Experiment: Immunofluorescence high content imaging of BCL6 degradation in T47D cells
Assay type: cell-based
Conditions: T47D cells
Outline: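 T47D cells were treated 3 days at 37 °C with an 11-point 3-fold dilution series (top 0.1 or 1 μM), then fixed, permeabilized and immunostained for BCL6 with Alexa-488 secondary, CellMask and Hoechst. BCL6 signal was imaged at 10×, 4 fields/well, with top-hat smoothing.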

Dmax | IC50 | Structure (SMILES)
≥ 70% | 10 to 50 nM | CNC(=O)COc1cc2cc(Nc3nc(N4CCN(CC5CCN(c6cc7c(cc6OC)C(=O)N(C6CCC(=O)NC6=O)C7=O)CC5)CC4)ncc3Cl)ccc2n(C(C)C)c1=O (stereo not drawn) [compound 404, 2-{[6-({5-chloro-2-[4-({1-[2-(2,6-dioxopiperidin-3-yl)-6-methoxy-1,3-dioxo-2,3-dihydro-1H-isoindol-5-yl]piperidin-4-yl}methyl)piperazin-1-yl]pyrimidin-4-yl}amino)-2-oxo-1-(propan-2-yl)-1,2-dihydroquinolin-3-yl]oxy}-N-methylacetamide]
– | ≥ 100 nM | CNC(=O)COc1cc2cc(Nc3nc(N4CC5(CC(OC6CCN(c7ccc8c(c7)C(=O)N(C7CCC(=O)NC7=O)C8=O)CC6)C5)C4)ncc3Cl)ccc2n(C(C)C)c1=O (stereo not drawn) [compound 405, 2-{[6-({5-chloro-2-[6-({1-[2-(2,6-dioxopiperidin-3-yl)-1,3-dioxo-2,3-dihydro-1H-isoindol-5-yl]piperidin-4-yl}oxy)-2-azaspiro[3.3]heptan-2-yl]pyrimidin-4-yl}amino)-2-oxo-1-(propan-2-yl)-1,2-dihydroquinolin-3-yl]oxy}-N-methylacetamide]
≥ 70% | < 10 nM | CNC(=O)COc1cc2cc(Nc3nc(N4CC5(CC(OC6CCN(c7cccc8c7C(=O)N(C7CCC(=O)NC7=O)C8=O)CC6)C5)C4)ncc3Cl)ccc2n(C(C)C)c1=O (stereo not drawn) [compound 406, 2-{[6-({5-chloro-2-[6-({1-[2-(2,6-dioxopiperidin-3-yl)-1,3-dioxo-2,3-dihydro-1H-isoindol-4-yl]piperidin-4-yl}oxy)-2-azaspiro[3.3]heptan-2-yl]pyrimidin-4-yl}amino)-2-oxo-1-(propan-2-yl)-1,2-dihydroquinolin-3-yl]oxy}-N-methylacetamide]
– | ≥ 100 nM | CNC(=O)COc1cc2cc(Nc3nc(N4CCN(CC5CCN(C(=O)c6cccc(N7CCC(=O)NC7=O)c6)CC5)CC4)ncc3Cl)ccc2n(C(C)C)c1=O [compound 407, 2-{[6-({5-chloro-2-[4-({1-[3-(2,4-dioxo-1,3-diazinan-1-yl)benzoyl]piperidin-4-yl}methyl)piperazin-1-yl]pyrimidin-4-yl}amino)-2-oxo-1-(propan-2-yl)-1,2-dihydroquinolin-3-yl]oxy}-N-methylacetamide]
– | ≥ 100 nM | CNC(=O)COc1cc2cc(Nc3nc(N4CCN(CC5CCN(C(=O)c6ccc(N7CCC(=O)NC7=O)c(OC)c6)CC5)CC4)ncc3Cl)ccc2n(C(C)C)c1=O [compound 408, 2-{[6-({5-chloro-2-[4-({1-[4-(2,4-dioxo-1,3-diazinan-1-yl)-3-methoxybenzoyl]piperidin-4-yl}methyl)piperazin-1-yl]pyrimidin-4-yl}amino)-2-oxo-1-(propan-2-yl)-1,2-dihydroquinolin-3-yl]oxy}-N-methylacetamide]
< 50% | < 10 nM | CNC(=O)COc1cc2cc(Nc3nc(N4CCN(CC5CCC6(CC5)CN(c5ccc(OC)c7c5C(=O)N(C5CCC(=O)NC5=O)C7=O)C6)CC4)ncc3Cl)ccc2n(C(C)C)c1=O (stereo not drawn) [compound 411, 2-{[6-({5-chloro-2-[4-({2-[2-(2,6-dioxopiperidin-3-yl)-7-methoxy-1,3-dioxo-2,3-dihydro-1H-isoindol-4-yl]-2-azaspiro[3.5]nonan-7-yl}methyl)piperazin-1-yl]pyrimidin-4-yl}amino)-2-oxo-1-(propan-2-yl)-1,2-dihydroquinolin-3-yl]oxy}-N-methylacetamide]
≥ 70% | < 10 nM | CNC(=O)COc1cc2cc(Nc3nc(N4CCC(OC5CC6(C5)CN(c5ccc7c(c5)CN(C5CCC(=O)NC5=O)C7=O)C6)CC4)ncc3Cl)ccc2n(C(C)C)c1=O (stereo not drawn) [compound 412, 2-{[6-({5-chloro-2-[4-({2-[2-(2,6-dioxopiperidin-3-yl)-1-oxo-2,3-dihydro-1H-isoindol-5-yl]-2-azaspiro[3.3]heptan-6-yl}oxy)piperidin-1-yl]pyrimidin-4-yl}amino)-2-oxo-1-(propan-2-yl)-1,2-dihydroquinolin-3-yl]oxy}-N-methylacetamide]
50 to 70% | < 10 nM | CNC(=O)COc1cc2cc(Nc3nc(N4CCC5(CC4)CN(CC4CCN(c6ccc7c(c6)CN(C6CCC(=O)NC6=O)C7=O)CC4)C5)ncc3Cl)ccc2n(C(C)C)c1=O (stereo not drawn) [compound 413, 2-{[6-({5-chloro-2-[2-({1-[2-(2,6-dioxopiperidin-3-yl)-1-oxo-2,3-dihydro-1H-isoindol-5-yl]piperidin-4-yl}methyl)-2,7-diazaspiro[3.5]nonan-7-yl]pyrimidin-4-yl}amino)-2-oxo-1-(propan-2-yl)-1,2-dihydroquinolin-3-yl]oxy}-N-methylacetamide]
≥ 70% | – | CNC(=O)COc1cc2cc(Nc3nc(N4CCN(CC5CCN(c6cc(OC)cc7c6C(=O)N(C6CCC(=O)NC6=O)C7=O)CC5)CC4)ncc3Cl)ccc2n(C(C)C)c1=O (stereo not drawn) [compound 414, 2-{[6-({5-chloro-2-[4-({1-[2-(2,6-dioxopiperidin-3-yl)-6-methoxy-1,3-dioxo-2,3-dihydro-1H-isoindol-4-yl]piperidin-4-yl}methyl)piperazin-1-yl]pyrimidin-4-yl}amino)-2-oxo-1-(propan-2-yl)-1,2-dihydroquinolin-3-yl]oxy}-N-methylacetamide]
– | ≥ 100 nM | CNC(=O)COc1cc2cc(Nc3nc(N4CCC(CN5CCC(c6ccc(N7CCC(=O)NC7=O)c(OC)c6)CC5)CC4)ncc3Cl)ccc2n(C(C)C)c1=O [compound 415, 2-{[6-({5-chloro-2-[4-({4-[4-(2,4-dioxo-1,3-diazinan-1-yl)-3-methoxyphenyl]piperidin-1-yl}methyl)piperidin-1-yl]pyrimidin-4-yl}amino)-2-oxo-1-(propan-2-yl)-1,2-dihydroquinolin-3-yl]oxy}-N-methylacetamide]
– | ≥ 100 nM | CNC(=O)COc1cc2cc(Nc3nc(N4CCC(CN5CCC(c6cccc(N7CCC(=O)NC7=O)c6)CC5)CC4)ncc3Cl)ccc2n(C(C)C)c1=O [compound 416, 2-{[6-({5-chloro-2-[4-({4-[3-(2,4-dioxo-1,3-diazinan-1-yl)phenyl]piperidin-1-yl}methyl)piperidin-1-yl]pyrimidin-4-yl}amino)-2-oxo-1-(propan-2-yl)-1,2-dihydroquinolin-3-yl]oxy}-N-methylacetamide]
≥ 70% | < 10 nM | CNC(=O)COc1cc2cc(Nc3nc(N4CCC(CN5CCC6(CC5)CN(c5ccc7c(c5)CN(C5CCC(=O)NC5=O)C7=O)C6)CC4)ncc3Cl)ccc2n(C(C)C)c1=O (stereo not drawn) [compound 417, 2-{[6-({5-chloro-2-[4-({2-[2-(2,6-dioxopiperidin-3-yl)-1-oxo-2,3-dihydro-1H-isoindol-5-yl]-2,7-diazaspiro[3.5]nonan-7-yl}methyl)piperidin-1-yl]pyrimidin-4-yl}amino)-2-oxo-1-(propan-2-yl)-1,2-dihydroquinolin-3-yl]oxy}-N-methylacetamide]
≥ 70% | < 10 nM | CNC(=O)COc1cc2cc(Nc3nc(N4CCC(CN5CCC6(CC5)CN(c5cccc7c5C(=O)N(C5CCC(=O)NC5=O)C7=O)C6)CC4)ncc3Cl)ccc2n(C(C)C)c1=O (stereo not drawn) [compound 418, 2-{[6-({5-chloro-2-[4-({2-[2-(2,6-dioxopiperidin-3-yl)-1,3-dioxo-2,3-dihydro-1H-isoindol-4-yl]-2,7-diazaspiro[3.5]nonan-7-yl}methyl)piperidin-1-yl]pyrimidin-4-yl}amino)-2-oxo-1-(propan-2-yl)-1,2-dihydroquinolin-3-yl]oxy}-N-methylacetamide]
≥ 70% | – | CNC(=O)COc1cc2cc(Nc3nc(N4CCC(CN5CCC6(CC5)CN(c5cccc(C(=O)NC7CCC(=O)NC7=O)c5F)C6)CC4)ncc3Cl)ccc2n(C(C)C)c1=O (stereo not drawn) [compound 419, 3-[7-({1-[5-chloro-4-({3-[(methylcarbamoyl)methoxy]-2-oxo-1-(propan-2-yl)-1,2-dihydroquinolin-6-yl}amino)pyrimidin-2-yl]piperidin-4-yl}methyl)-2,7-diazaspiro[3.5]nonan-2-yl]-N-(2,6-dioxopiperidin-3-yl)-2-fluorobenzamide]
< 50% | 50 to 100 nM | CNC(=O)COc1cc2cc(Nc3nc(N4CCC(CN5CCC6(CC5)CN(c5cccc(C(=O)NC7CCC(=O)NC7=O)c5OC)C6)CC4)ncc3Cl)ccc2n(C(C)C)c1=O (stereo not drawn) [compound 420, 3-[7-({1-[5-chloro-4-({3-[(methylcarbamoyl)methoxy]-2-oxo-1-(propan-2-yl)-1,2-dihydroquinolin-6-yl}amino)pyrimidin-2-yl]piperidin-4-yl}methyl)-2,7-diazaspiro[3.5]nonan-2-yl]-N-(2,6-dioxopiperidin-3-yl)-2-methoxybenzamide]
≥ 70% | < 10 nM | CNC(=O)COc1cc2cc(Nc3nc(N4CCC(OC5CCC6(CC5)CN(c5ccc7c(c5)C(=O)N(C5CCC(=O)NC5=O)C7=O)C6)CC4)ncc3Cl)ccc2n(C(C)C)c1=O (stereo not drawn) [compound 421, 2-{[6-({5-chloro-2-[4-({2-[2-(2,6-dioxopiperidin-3-yl)-1,3-dioxo-2,3-dihydro-1H-isoindol-5-yl]-2-azaspiro[3.5]nonan-7-yl}oxy)piperidin-1-yl]pyrimidin-4-yl}amino)-2-oxo-1-(propan-2-yl)-1,2-dihydroquinolin-3-yl]oxy}-N-methylacetamide]

Structure (SMILES) | Dmax | IC50
CNC(=O)COc1cc2cc(Nc3nc(N4CCC(O[C@H]5C[C@H](N6CCC(c7cccc8c7C(=O)N(C7CCC(=O)NC7=O)C8=O)CC6)C5)CC4)ncc3Cl)ccc2n(C(C)C)c1=O (stereo partly drawn) [compound 409, 2-({6-[(5-chloro-2-{4-[(1r,3r)-3-{4-[2-(2,6-dioxopiperidin-3-yl)-1,3-dioxo-2,3-dihydro-1H-isoindol-4-yl]piperidin-1-yl}cyclobutoxy]piperidin-1-yl}pyrimidin-4-yl)amino]-2-oxo-1-(propan-2-yl)-1,2-dihydroquinolin-3-yl}oxy)-N-methylacetamide] | 50 to 70% | < 10 nM
